We go through 6 compounds from ChEMBL document CHEMBL1201862, “PubChem BioAssay data set” (2004).

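Step 1: Grow cells in 96-well plates. Step 2: Expose to compound for 48 hours at 5 concentrations. Step 3: Interpolate endpoints linearly; if unreached, use highest concentration. The concentration for 50% growth inhibition is given as GI50.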 The source made the active and inactive calls. Cut-off read from the data, not from the text of the source: active = GI50 up to about 1.1 µM and inactive = higher.

Among the test systems are SNB-75; KM12; OVCAR-4; IGROV-1; Malme-3M; A498; SF-539; K562; SK-MEL-2; SNB-78; HT-29; UACC-257; ACHN; COLO 205; Hs-578T; MDA-MB-231; 786-0; OVCAR-8; HCC 2998; MOLT-4.
Test in all cases: NCI tumour cell line growth inhibition, 48 h

As to `C=C1CC2(OC1=O)c1ccccc1C=Cc1ccccc12`, the GI50 in the experiment on SNB-75 was 9.18 µM (inactive); in the experiment on KM12, 4.05 µM (inactive); with OVCAR-4, 4.4 µM (inactive); in the experiment on IGROV-1 it was 7.26 µM (inactive); with Malme-3M it was 4.94 µM (inactive); with A498 it was 8.24 µM (inactive). Also, the GI50 in the experiment on SF-539 is 2.83 µM (inactive); in the experiment on K562, 1.2 µM (inactive); in the experiment with SK-MEL-2, 8.65 µM (inactive); in the experiment with SNB-78 it was 3.08 µM (inactive); in the experiment with HT-29, 2.44 µM (inactive); in the experiment on UACC-257, 5.14 µM (inactive). The GI50 is 4.8 µM (inactive) in the experiment on ACHN; 2.3 µM (inactive) with COLO 205; 2.51 µM (inactive) in the experiment with Hs-578T; 2.26 µM (inactive) with MDA-MB-231; 2.86 µM (inactive) with 786-0; 5.21 µM (inactive) in the experiment with OVCAR-8. The GI50 in the experiment on HCC 2998 is 6.95 µM (inactive); in the experiment on MOLT-4 it was 1.81 µM (inactive).

For the compound `N#C/C(=C\c1ccc2[nH]ccc2c1)C(=O)c1ccc(O)c(O)c1`, the GI50 with SNB-75 was > 100 µM (inactive); with KM12, > 100 µM (inactive); with OVCAR-4 it was > 64.3 µM (inactive); in the experiment with IGROV-1, > 88.5 µM (inactive); in the experiment with Malme-3M, > 65.8 µM (inactive); with A498, > 100 µM (inactive). The GI50 in the experiment on SF-539 was > 57.4 µM (inactive); in the experiment with K562, 48.4 µM (inactive); in the experiment on SK-MEL-2 it was > 78.9 µM (inactive); with SNB-78, > 100 µM (inactive); with HT-29, 69 µM (inactive); in the experiment with UACC-257 it was > 80.5 µM (inactive). Besides, the GI50 in the experiment on ACHN is 45.8 µM (inactive); in the experiment on COLO 205, > 67.8 µM (inactive); in the experiment on Hs-578T it was 44.2 µM (inactive); in the experiment on 786-0 it was 43 µM (inactive); in the experiment on OVCAR-8, > 100 µM (inactive); in the experiment with HCC 2998, 66.7 µM (inactive). Also, the GI50 in the experiment on MOLT-4 was 44.7 µM (inactive).

In the case of `COc1ccc(CCNCCCC2c3ccccc3-c3ccccc32)cc1OC`, the GI50 with SNB-75 is 13.5 µM (inactive); with KM12 it was 15.1 µM (inactive); in the experiment with OVCAR-4 it was 15.8 µM (inactive); with IGROV-1 it was 13.6 µM (inactive); in the experiment with Malme-3M, 13.6 µM (inactive); in the experiment with A498 it was 8.02 µM (inactive). The GI50 with SF-539 was 16.3 µM (inactive); with K562 it was 4.09 µM (inactive); with SK-MEL-2, 6.68 µM (inactive); in the experiment with SNB-78, 15.7 µM (inactive); in the experiment with HT-29, 5.06 µM (inactive); with UACC-257 it was 14.3 µM (inactive). The GI50 is 16.1 µM (inactive) in the experiment with ACHN; 1.86 µM (inactive) with COLO 205; 20.1 µM (inactive) with Hs-578T; 15 µM (inactive) in the experiment on 786-0; 16.6 µM (inactive) in the experiment on OVCAR-8; 2.06 µM (inactive) in the experiment with HCC 2998. In addition, the GI50 in the experiment with MOLT-4 is 22.6 µM (inactive).

Turning to `CNc1cccc(-c2cc(O)c3cc4c(cc3n2)OCO4)c1`, the GI50 in the experiment with SNB-75 is 1.8 µM (inactive); in the experiment on KM12, 0.177 µM (active); in the experiment on OVCAR-4, > 20.7 µM (inactive); in the experiment with IGROV-1, 0.437 µM (active); in the experiment on Malme-3M, 0.168 µM (active); in the experiment with A498, 0.307 µM (active). Also, the GI50 was 0.198 µM (active) in the experiment with SF-539; 0.201 µM (active) in the experiment on K562; 0.385 µM (active) in the experiment with SK-MEL-2; 0.318 µM (active) in the experiment with SNB-78; 0.3 µM (active) in the experiment with HT-29; 0.883 µM (active) in the experiment with ACHN. The GI50 was 0.167 µM (active) with COLO 205; 0.269 µM (active) with Hs-578T; 0.407 µM (active) in the experiment with MDA-MB-231; 0.334 µM (active) in the experiment with 786-0; 0.409 µM (active) in the experiment on OVCAR-8; 0.322 µM (active) in the experiment on HCC 2998. Besides, the GI50 with MOLT-4 is 0.581 µM (active).

Consider `O=C(O)C(C(=O)O)P(=S)(S)c1ccccc1` (stereo not given), for which the GI50 in the experiment on SNB-75, in the experiment on KM12, in the experiment on OVCAR-4, in the experiment on IGROV-1, with Malme-3M and with A498 was > 100 µM (inactive) throughout. The GI50 in the experiment with SF-539, with K562, in the experiment with SK-MEL-2, with SNB-78, in the experiment with HT-29 and in the experiment on UACC-257 was > 100 µM (inactive) in each case. Also, the GI50 with ACHN, with COLO 205, with Hs-578T, in the experiment on MDA-MB-231, in the experiment with 786-0 and in the experiment with OVCAR-8 was > 100 µM (inactive) each time. In addition, the GI50 in the experiment with HCC 2998 was > 100 µM (inactive); in the experiment with MOLT-4, > 30.4 µM (inactive).

In the case of `CCCCCCC(/C=N/O)C(C)(O)CCC` (stereo not given), the GI50 with SNB-75, with KM12, with OVCAR-4, in the experiment on IGROV-1, with Malme-3M and in the experiment on A498 was > 100 µM (inactive) throughout. Also, the GI50 is > 100 µM (inactive) with SF-539; 84.3 µM (inactive) in the experiment with K562; > 100 µM (inactive) with SK-MEL-2; > 100 µM (inactive) with SNB-78; > 100 µM (inactive) in the experiment on HT-29; > 100 µM (inactive) in the experiment with UACC-257. Also, the GI50 is > 100 µM (inactive) in the experiment with ACHN; > 100 µM (inactive) with COLO 205; > 100 µM (inactive) in the experiment on 786-0; > 100 µM (inactive) in the experiment with OVCAR-8; > 100 µM (inactive) in the experiment with HCC 2998; 61.7 µM (inactive) in the experiment on MOLT-4.
